Drawing on PubChem BioAssay AID977614 (Broad Institute, 2014), this text covers AC50 for 50 molecules.

Activity calls are given as the source filed them.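 Rule for the calls: active = parasite count per well reduced by over 3 SD from the mean, with host cell number above 80% of untreated; inactive = the rest.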

The assay has as its system L. donovani amastigotes in THP-1 macrophages, DAPI imaging, 72 h. In words: antileishmanial activity in infected macrophages – imaging, THP-1 host macrophages, single concentration (AID 977614).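 Note: signal is the parasite per host cell ratio from DAPI stained kinetoplasts and nuclei.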
Broadly, the AC50 is the concentration at which the activity in the assay is half-maximal. In the case of `CCC(=O)N1[C@H](CO)[C@H](c2ccc(C#CC3CCCCC3)cc2)[C@@H]1CNC(C)C`, the AC50 is > 10 µM (inactive). The value for `C/C=C/c1ccc([C@H]2[C@@H](CO)N(CC3CCCC3)[C@H]2CNS(C)(=O)=O)cc1` was > 10 µM (inactive); that for `CC(C)N(C[C@@H]1[C@H](c2ccccc2)[C@@H](CO)N1S(C)(=O)=O)C(=O)CN(C)C` was > 10 µM (inactive); that for `C[C@@H]1CN([C@@H](C)CO)C(=O)CCCn2cc(nn2)CO[C@H]1CN(C)C(=O)NC1CCCCC1` was > 10 µM (inactive). The value for `CCC(=O)N1[C@H](CO)[C@@H](c2ccccc2)[C@H]1CN(C)C(=O)CN1CCOCC1` was > 10 µM (inactive). `O=S(=O)(c1ccccc1)N1[C@@H]2CNc3ccccc3[C@@H]2[C@@H]1CO`: the AC50 was > 10 µM (inactive). Next, `C[C@H](CO)N1C[C@H](C)[C@@H](CN(C)C(=O)Oc2cccc3ccccc23)OCc2cnnn2CCCC1=O`: > 10 µM (inactive); `CCN(C[C@@H]1[C@@H](c2ccc(C3=CCCCC3)cc2)[C@@H](CO)N1CC1CC1)C(C)=O`: > 10 µM (inactive); `O=C(Cc1cccnc1)N1[C@@H](CO)[C@H](c2ccccc2)[C@@H]1CNCC1CCC1`: > 10 µM (inactive). As to `O=C(CC1CC1)N1[C@H](CO)[C@H]2c3ccccc3N(S(=O)(=O)c3ccccc3F)C[C@H]21`, the AC50 is > 10 µM (inactive). The value for `C[C@@H]1CN([C@H](C)CO)C(=O)CCCn2cc(nn2)CO[C@H]1CN(C)C(=O)Nc1ccc2c(c1)OCO2` was > 10 µM (inactive). The value for `OC[C@@H]1[C@H]2c3ccccc3NC[C@H]2N1Cc1ccccc1Cl` was > 10 µM (inactive). The value for `COc1cccc(NC(=O)N2[C@H](CO)[C@@H](c3ccccc3)[C@H]2CNCC(C)C)c1` was > 10 µM (inactive); that for `C[C@H](CO)N1C[C@H](C)[C@H](CN(C)C(=O)Nc2ccc3c(c2)OCO3)OCc2cn(nn2)CCCC1=O` was > 10 µM (inactive). For `CCCNC[C@@H]1[C@@H](c2ccc(C3=CCCCC3)cc2)[C@@H](CO)N1C(=O)C1CCC1`, the AC50 is > 10 µM (inactive). Next, `CCCC#Cc1ccc([C@H]2[C@@H](CO)N(C(=O)NC(C)C)[C@H]2CNC(C)=O)cc1`: > 10 µM (inactive); `COCCN(C[C@@H]1[C@@H](c2ccccc2)[C@@H](CO)N1C(C)=O)C(=O)c1cccnc1`: > 10 µM (inactive). The value for `CN1[C@@H](CO)[C@@H]2c3ccccc3N(C(=O)Nc3cc(F)ccc3F)C[C@@H]21` was > 10 µM (inactive). The value for `COCC(=O)N1[C@H](CO)[C@H](c2ccc(C#CC(C)C)cc2)[C@@H]1CNC(C)=O` was > 10 µM (inactive). Regarding `CC(C)NC(=O)N1[C@H](CO)[C@@H]2c3ccccc3NC[C@@H]21`, the AC50 was > 10 µM (inactive). The value for `CCN(C[C@H]1[C@@H](c2ccccc2)[C@H](CO)N1CC1CC1)C(=O)c1ccccn1` was > 10 µM (inactive); that for `O=C(CC(F)(F)F)N1C[C@H]2[C@@H](c3ccccc31)[C@@H](CO)N2C(=O)C1CCCCC1` was > 10 µM (inactive); that for `O=C(CN1CCOCC1)N(CC1CCC1)C[C@H]1N[C@H](CO)[C@@H]1c1ccccc1` was > 10 µM (inactive). The value for `C[C@H](CO)N1C[C@H](C)[C@@H](CN(C)C(=O)NC2CCCCC2)OCc2cn(nn2)CCCC1=O` was > 10 µM (inactive). Next, `Cc1noc(C)c1NC(=O)N(C)C[C@@H]1OCc2cnnn2CCCC(=O)N([C@@H](C)CO)C[C@H]1C`: > 10 µM (inactive); `C[C@@H]1CN([C@H](C)CO)C(=O)CCCn2nncc2CO[C@@H]1CN(C)Cc1ccc2c(c1)OCCN2C`: > 10 µM (inactive). Consider `CCN(C[C@@H]1N[C@H](CO)[C@H]1c1ccccc1)C(=O)c1ccncc1`, for which the AC50 is > 10 µM (inactive). Regarding `COc1ccc(C(=O)N2C[C@H]3[C@@H](c4ccccc42)[C@@H](CO)N3Cc2ccccc2Cl)cc1`, the AC50 is > 10 µM (inactive). Next, `O=C(C1CCOCC1)N1C[C@@H]2[C@H](c3ccccc31)[C@@H](CO)N2C(=O)Cc1ccccn1`: > 10 µM (inactive).

On to `CN1C[C@H]2[C@@H](c3ccccc31)[C@@H](CO)N2C(=O)c1cccnc1`, for which the AC50 was > 10 µM (inactive). Take `C[C@@H]1CN([C@H](C)CO)C(=O)CCCn2cc(nn2)CO[C@H]1CN(C)C(=O)c1ccc(N2CCN(C)CC2)cc1`: the AC50 is > 10 µM (inactive). On to `COc1ccccc1NC(=O)N1C[C@H]2[C@@H](c3ccccc31)[C@H](CO)N2CC1CCOCC1`, for which the AC50 is > 10 µM (inactive). As for `CCCC(=O)N1C[C@@H]2[C@H](c3ccccc31)[C@H](CO)N2C(=O)Nc1ccc(F)cc1`, the AC50 was > 10 µM (inactive). Consider `CC(=O)N1[C@@H]2CN(S(=O)(=O)c3ccccc3C)c3ccccc3[C@@H]2[C@@H]1CO`, for which the AC50 is > 10 µM (inactive). For `O=C(Nc1cccc(F)c1)N1C[C@@H]2[C@H](c3ccccc31)[C@H](CO)N2C(=O)Cc1ccccn1`, the AC50 is > 10 µM (inactive). The value for `CC(=O)N1[C@H](CO)[C@@H](c2ccccc2)[C@H]1CN(CC1CCC1)C(=O)CN(C)C` was > 10 µM (inactive); that for `C[C@H]1CN([C@@H](C)CO)C(=O)CCCn2nncc2CO[C@H]1CN(C)C(=O)Nc1ccc2c(c1)OCCO2` was > 10 µM (inactive). The value for `C[C@H](CO)N1C[C@H](C)[C@H](CN(C)C(=O)Oc2ccc3ccccc3c2)OCc2cn(nn2)CCCC1=O` was > 10 µM (inactive); that for `CC(=O)N1[C@H](CO)[C@@H](c2ccc(C3=CCCCC3)cc2)[C@@H]1CNC(=O)CN(C)C` was > 10 µM (inactive); that for `Cc1ccc(S(=O)(=O)N2C[C@@H]3[C@H](c4ccccc42)[C@H](CO)N3Cc2cccnc2)cc1` was > 10 µM (inactive). For `O=C(c1ccc2c(c1)OCO2)N1C[C@@H]2[C@H](c3ccccc31)[C@H](CO)N2C(=O)CC1CC1`, the AC50 is > 10 µM (inactive).

Take `C[C@@H]1CN([C@H](C)CO)C(=O)CCCn2nncc2CO[C@@H]1CN(C)CC1CCCCC1`: the AC50 is > 10 µM (inactive). Regarding `O=C(Nc1ccc(Cl)cc1)N1C[C@@H]2[C@H](c3ccccc31)[C@@H](CO)N2CC1CCCCC1`, the AC50 is > 10 µM (inactive). On to `C/C=C/c1ccc([C@@H]2[C@@H](CO)N(C(C)=O)[C@@H]2CN(CC)C(=O)CN(C)C)cc1`, for which the AC50 is > 10 µM (inactive).

With `CNC[C@H]1OCc2cn(nn2)CCCC(=O)N([C@@H](C)CO)C[C@@H]1C`, the AC50 is > 10 µM (inactive).

Regarding `CCN(C[C@@H]1[C@@H](c2ccc(-c3cccnc3)cc2)[C@@H](CO)N1C(C)=O)C(C)=O`, the AC50 was > 10 µM (inactive). Next, `Cc1noc(C)c1S(=O)(=O)N(C)C[C@@H]1OCc2cnnn2CCCC(=O)N([C@@H](C)CO)C[C@@H]1C`: > 10 µM (inactive); `C[C@@H]1CN([C@H](C)CO)C(=O)CCCn2nncc2CO[C@@H]1CN(C)S(=O)(=O)c1cn(C)cn1`: > 10 µM (inactive); `COCCN(C[C@H]1N[C@H](CO)[C@@H]1c1ccc(-c2cccc(C#N)c2)cc1)C(C)=O`: > 10 µM (inactive). The value for `Cc1noc(C)c1S(=O)(=O)N(C)C[C@H]1OCc2cnnn2CCCC(=O)N([C@@H](C)CO)C[C@H]1C` was > 10 µM (inactive).
